From patent US7928119B2, “Use of EP4 receptor ligands in the treatment of IL-6 involved diseases” (Pfizer Inc., priority 2002, dated 2011)
Values joined by “and” are separate entries in the source; they are usually repeats but may differ in a detail not shown here. Identical values can stand only once.

Experiments:
human whole blood (HWB) [1] = test: Effects of EP agonists on the production of IL-6 in HWB; format: cell-based; details: agonist 1-10 μM (up to 10 μM), 24 hrs
Description: Peripheral human whole blood (HWB) was collected from healthy volunteers into the sample tubes (nine volumes into one volume of 3.8% trisodium citrate, Becton Dickinson), and chilled at 4° C. until the experiment. HWB (50 μl) was put into the assay plate and mixed for 10 sec with plate mixer (intensity level at 4, TAITAC, Micromixer). The samples were placed for 3 min at room temperature, then 45 μl of AIM medium was added and mixed for 10 sec with plate mixer (intensity level at 4). The samples were placed for 3 min at room temperature. The mixture (100 μl) of 10-10000 nM each EP agonist and 100 μM argatroban were added to the samples, and mixed for 10 sec with plate mixer (intensity level at 4). The samples were incubated in 5% CO2 at 37° C. for 24 hrs. Then, the samples were stirred and centrifuged at 200 g for 10 minutes. The supernatants were collected, and the IL-6 concentration was measured by ELISA-Kit (Cyto screen).
The application of 1-10 μM Butaprost, an EP2 agonist, enhanced IL-6 production (FIG. 5). […] Effects of EP2 (butaprost), EP4 (11-deoxy-PGE1) and EP1/EP3 (sulprostone) agonists on the production of IL-6 in HWB was measured respectively. Each agonist was added to the HWB, and incubated in 5% CO2 at 37° C. for 24 hrs. The results represented the mean±s.d. of the results in triplicate. […]

human PBMC = test: PGE2 stimulation of IL-6 secretion in ConA-treated human PBMC and its inhibition by EP4 antagonists (ELISA); format: cell-based
Description: PBMC were stimulated with 5 μg/ml of Con A alone or with 10 nM to 1000 nM PGE2 at 37° C. for 24 hr. The secreted IL-6 in culture medium was measured by ELISA. Data are expressed as mean±s.d. (FIG. 1)
The PGE2 concentration-dependence of stimulation of IL-6 secretion by human PBMC without and with ConA-stimulation, and the inhibitory effect of Compound A. PBMC were stimulated with 5 μg/ml of Concanavalin A alone or with 10 nM to 1000 nM PGE2 at 37° C. in 5% CO2 for 24 hr. To see the effect of Compound A, 50 μM of Compound A was added simultaneously with ConA and PGE2, and incubated for 24 hr. Data in parenthesis are expressed % control of mitocondorial dehydrogenase activity. (FIG. 2)
Compound A and Compound B inhibited the IL-6 secretion in ConA-treated PBMC. (FIG. 3.) PBMC were incubated with 5 μg/ml of Con A, 100 nM PGE2 and various doses of EP4 antagonists at 37° C. for 24 hr. The secreted IL-6 in culture medium was measured by ELISA. Data are expressed as mean±s.d.

PGE2-stimulated HWB = test: Effects of EP4 antagonist on the production of IL-6 in PGE2-stimulated HWB; format: cell-based, human; details: Compound B 320-40,000 nM, 24 hrs
Description: Peripheral human whole blood (HWB) was collected from healthy volunteers into the sampling tubes (nine volumes into one volume of 3.8% trisodium citrate, Becton Dickinson), and chilled at 4° C. until the experiment.
Compound B (5 μl) or vehicle (AIM medium containing 0.2% DMSO) was added into 96-well culture plates. HWB (50 μl) was put into the assay plate and mixed for 10 sec with plate mixer (intensity level at 4, TAITAC, Micromixer). The samples were placed for 3 min at room temperature, and then 45 μl of AIM medium was added and mixed for 10 sec with plate mixer (intensity level at 4). The samples were placed for 3 min at room temperature. The mixture (100 μl) of 100 nM PGE2 and 100 μM argatroban was added to the samples, and mixed for 10 sec with plate mixer (intensity level at 4). The samples were incubated in 5% CO2 at 37° C. for 24 hrs. Then, the samples were stirred and centrifuged at 200 g for 10 minutes. The supernatants were collected, and the IL-6 concentration was measured by ELISA-Kit (Cyto screen).
Compound B inhibited the PGE2-stimulated IL-6 production in a dose dependent manner (FIG. 6). Diluted human whole blood samples containing Compound B were stimulated with 10-10,000 nM of PGE2 and incubated at 37° C. for 24 hrs. The IL-6 concentration in the supernatant was determined by ELISA. […]

[2] = system: ConA and PGE2 co-stimulated human whole blood; test: IL-6 production in ConA and PGE2 co-stimulated human whole blood; format: cell-based
Description: Compound B (50 μl), ConA and PGE2 (50 μl, 1:1) were diluted with the AIM medium (Gibco) in the appropriate concentrations (conc.) and were placed onto 96-well culture plates (assay plates). Peripheral blood was collected from healthy volunteers (nine volumes into one volume of 3.8% trisodium citrate, Becton Dickinson). Human whole-blood samples were diluted with the same volume of AIM medium, and 100 μl of diluted-blood samples were place onto the assay plates. The final DMSO conc. of assay mixtures was 0.25%. The assay mixtures were incubated in 5% CO2 at 37° C. for 24 hrs. Then, the assay mixtures were stirred and centrifuged at 200 g for 10 minutes. The supernatants were collected, and the IL-6 concentration was measured by ELISA-Kit (Cyto screen).
PGE2 enhanced IL-6 production dose dependently from 10 to 1000 nM (FIG. 7). When blood samples were stimulated with 10, 100 and 1000 nM of PGE2, the IL-6 concentrations in the assay mixtures were 1.8˜10.8 ng/ml, 4˜20 ng/ml and 5.8˜23 ng/ml, respectively. The concentrations of PGE2 (10-1000 nM) gave sufficient IL-6 production to determine the IC50s of the EP4 antagonists. […] Diluted human whole-blood samples were stimulated with 5 μg/ml of ConA and three different concentrations of PGE2 (10-1000 nM). The IL-6 concentration in the supernatant was determined after 24 hrs of incubation at 37° C. Diluted human whole blood was co-stimulated with 5 μg/ml of ConA and 100 nM of PGE2 and incubated at 37° C. for 24 hrs. The IL-6 concentration in the supernatant was determined by ELISA.

human whole blood cells = test: IL-6 production in human whole blood cells; format: cell-based; details: application of only PGE2 to human whole blood cells
Excerpt: One embodiment of this invention is a more specific therapeutic targeting system to control IL-6 production. In addition, this system is a useful method for the detection of molecular target of atherosclerosis and IL-6 related disorders.

[3] = system: human leukemic T cells of the HSB.2 cultured line; details: HSB.2 cells coexpressing EP2, EP3 and EP4; cited from earlier work
human whole blood (HWB) [4] = test: PGE2-induced IL-6 production assay using human whole blood (HWB); format: cell-based; details: 100 μM, 24 hrs incubation
Description: Peripheral human whole blood (HWB) was collected from healthy volunteers into the sample tubes (nine volumes into one volume of 3.8% trisodium citrate, Becton Dickinson), and chilled at 4° C. until the experiment. HWB (50 μl) was put into the assay plate and mixed for 10 sec with plate mixer (intensity level at 4, TAITAC, Micromixer). The samples were placed for 3 min at room temperature, then 45 μl of AIM medium was added and mixed for 10 sec with plate mixer (intensity level at 4). The samples were placed for 3 min at room temperature. The mixture (100 μl) of 10-10000 nM PGE2 and 100 μM argatroban were added to the samples, and mixed for 10 seconds with plate mixer (intensity level at 4). The samples were incubated in 5% CO2 at 37° C. for 24 hrs. Then, the samples were stirred and centrifuged at 200 g for 10 minutes. The supernatants were collected, and the IL-6 concentration was measured by ELISA-Kit (Cyto screen).
In this experiment, we have established PGE2-induced IL-6 production assay using human whole blood (HWB). To prevent fibrin synthesis, argatroban, a thrombin inhibitor, was added to the culture samples. […] Diluted human whole blood samples were stimulated with 10-10,000 nM of PGE2 and incubated at 37° C. for 24 hrs. The IL-6 concentration in the supernatant was determined by ELISA. […]

fibrin formation = test: Fibrin formation in HWB culture samples during 24 hrs incubation; design: species or system human; details: 100 μM
Description: In this experiment, we have established PGE2-induced IL-6 production assay using human whole blood (HWB). To prevent fibrin synthesis, argatroban, a thrombin inhibitor, was added to the culture samples. […] Diluted human whole blood samples were stimulated with 10-10,000 nM of PGE2 and incubated at 37° C. for 24 hrs. The IL-6 concentration in the supernatant was determined by ELISA. The results represented the mean±s.d. from one representative experiment performed in triplicate.

## CCCCC[C@H](O)/C=C/[C@H]1CCC(=O)[C@@H]1CCCCCCC(=O)O [11-deoxy-PGE1]
Human whole blood (HWB) [1]
  IL-6 production: enhanced

## CCCC1([C@H](O)C/C=C/[C@H]2[C@H](O)CC(=O)[C@@H]2CCCCCCC(=O)OC)CCC1 [Butaprost]
Human whole blood (HWB) [1]
  IL-6 production: enhanced

## O=C(O)c1cccc(C[C@@H]2CCCC=C2c2nc(-c3ccccc3)c(-c3ccccc3)o2)c1 [Compound B, 3-{[(1S)-2-(4,5-diphenyl-1,3-oxazol-2-yl)-2-cyclohexen-1-yl]methyl}benzoic acid]
Human PBMC; Homo sapiens, PBMC stimulated with 5 μg/ml ConA and 100 nM PGE2 for 24 hr, read-out: IC50 of inhibition of IL-6 production
  IC50: 0.032 µM
PGE2-stimulated HWB
  PGE2-stimulated IL-6 production: inhibited

## CCc1nc2cc(C(C)=O)ccc2n1-c1ccc(CCNC(=O)NS(=O)(=O)c2ccc(C)cc2)cc1 [Compound C, N-[({2-[4-(5-acetyl-2-ethyl-1H-benzimidazol-1-yl)phenyl]ethyl}amino)carbonyl]-4-methylbenzenesulfonamide]
[2]; ConA and PGE2 co-stimulated HWB
  mode of inhibition of IL-6 production: competitively with PGE2
[2]; ConA and PGE2 co-stimulated HWB, Compound C 16-50,000 nM
  inhibition of IL-6 production: dose-dependent inhibition

## CCCCC[C@H](O)/C=C/[C@H]1[C@H](O)CC(=O)[C@@H]1C/C=C\CCCC(=O)O [PGE2, Prostaglandin E2]
Human PBMC; ConA unstimulated PBMC, 10-1000 nM PGE2
  secretion of IL-6: did not affect
Human PBMC; PBMC, 5 μg/ml ConA, 24 hr, […] PGE2 (so in the source)
  IL-6 secretion further enhanced, compared with ConA stimulation without PGE2: 3.5 fold and 5.7 fold and 10.1 fold
[2]; ConA-stimulated HWB, PGE2 10 to 1000 nM
  IL-6 production: enhanced
Human whole blood cells
  IL-6 production: enhanced IL-6 production to a great extent
[3]
  IL-6 production: enhanced

## CC1CNc2c(cccc2S(=O)(=O)N[C@@H](CCCNC(=N)N)C(=O)N2CC[C@@H](C)C[C@@H]2C(=O)O)C1 (some centres unmarked) [argatroban]
Human whole blood (HWB) [4]
  amount of IL-6 production: did not affect
Fibrin formation
  fibrin formation in the blood samples: inhibited

## CCCC(=O)Nc1ncnc2c1ncn2[C@@H]1O[C@@H]2COP(=O)(O)O[C@H]2[C@H]1OC(=O)CCC [dibutyryl-cAMP]
[3]
  IL-6 production: mimicked
